Reference: publication PMC5656836, “Distinct activation mechanisms trigger the trypanocidal activity of DNA damaging prodrugs” (Molecular Microbiology, 2017)
“Also recorded” adds a separate entry of the source. Where two headings read alike, the source gives them in different places.

Columns and labels:
[1] = tested on: differentiated THP‐1 cells; settings: read-out: THP‐1 EC50, ref Voak et al., 2013; cited from earlier work
[2] = tested on: bloodstream form T. brucei; experiment: Growth inhibition of wild type / control bloodstream form T. brucei (resazurin); assay type: cell-based; settings: for EC50: Trypanosoma brucei
[3] = tested on: L. major promastigotes; experiment: Growth inhibition of L. major promastigotes (resazurin); assay type: cell-based; settings: for EC50: Leishmania major, 144 h, promastigotes, 6 days, read-out: L. major EC50
[4] = tested on: T. brucei Tbsnm1 null mutants (ΔTbsnm1); experiment: microbe, parasite or virus in culture; assay type: cell-based; settings: for EC50: Trypanosoma brucei, read-out: EC50 ΔTbsnm1
[5] = tested on: T. brucei over expressing TbNTR (Tbntr++); experiment: microbe, parasite or virus in culture; assay type: cell-based; settings: for EC50: Trypanosoma brucei, read-out: EC50 Tbntr++
[6] = tested on: T. cruzi epimastigotes; experiment: Growth inhibition of T. cruzi epimastigotes (resazurin); assay type: cell-based; settings: for EC50: Trypanosoma cruzi, 336 h, epimastigotes, 14 days, read-out: T. cruzi EC50
[7] = tested on: differentiated THP‐1 cells; experiment: Mammalian inhibition assay, differentiated THP-1 cells; assay type: cell-based; settings: Homo sapiens, 72 h; differentiated THP‐1 cells, 3 days; read-out: THP‐1 EC50
[8] = tested on: ΔTbsnm1 Tbcpr2++ T. brucei; assay type: cell-based
[9] = tested on: RH1^RC1 T. brucei; experiment: microbe, parasite or virus in culture; assay type: cell-based;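 on ratio (fold difference in EC50 between RH1^RC1 and wild type): resistant clone selected by stepwise exposure to the aziridinyl benzoquinone prodrug in culture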
[10] = tested on: mouse peritoneal macrophages; experiment: Toxicity to mouse peritoneal macrophages (cell counts, Giemsa); assay type: cell-based, BALB/c mice; settings: Peritoneal macrophage, 120 h, non‐cancerous primary cells, up to 5 days, read-out: EC50 towards mouse peritoneal macrophages
[11] = tested on: T. brucei over expressing TbCPR2 (Tbcpr2++); experiment: microbe, parasite or virus in culture; assay type: cell-based
[12] = Table 3, BSF T. brucei wild type, read-out: EC50 Wild type
[13] = Table 4, wild type T. brucei, read-out: EC50 Control

SMILES: CC1CS(=O)(=O)CCN1/N=C/c1ccc([N+](=O)[O-])o1 (stereo not shown) [Nifurtimox, reference compound]
- EC50 [1]: > 100000 nM
- EC50 [2, 12]: 2700 ± 100 nM
- EC50 [2, 13]: 2850 ± 20 nM
- EC50 ([2]; read-out: EC50 Control): 2980 ± 30 nM
- EC50 [3]: 6280 ± 40 nM
- EC50 [4]: 2250 ± 90 nM
- EC50 [5]: 315 nM
- EC50 [6]: 2600 ± 400 nM

SMILES: O=C1C(N2CC2)=C(N2CC2)C(=O)C(N2CC2)=C1N1CC1 [ABQ22]
- EC50 [7]: 138 ± 25 nM
- T. brucei SI ([2]; Selectivity Index: fold difference in EC50 of THP‐1 line relative to parasite): 1
- EC50 ([2]; 72 h, bloodstream form, 3 days, Table 1, activity of some compounds previously reported (Hall et al., 2012), read-out: T. brucei EC50): 148 ± 1 nM
- EC50 ([2]; Table 2, parasites expressing wild type levels, read-out: EC50 Control): 138 ± 25 nM
- EC50 [2, 12]: 197 ± 31 nM
- EC50 [2, 13]: 138 ± 25 nM
- L. major SI [3]: 1
- EC50 [3]: 218 ± 20 nM
- Fold more sensitive, ΔTbsnm1 Tbcpr2++ versus wild type [8]: 12.5 fold
- Ratio of EC50 values ΔTbsnm1 / control [4]: 0.15
- Susceptibility of Tbsnm1 null mutants relative to wild type / control (fold more susceptible) [4]: sevenfold
- EC50 [4]: 21 ± 5 nM
- Susceptibility of RH1 selected (RH1^RC) lines relative to wild type [9]: equally sensite
- ratio (fold difference in EC50 between RH1^RC1 and wild type) [9]: 1.2
- EC50 ([9]; Trypanosoma brucei, read-out: EC50 RH1^RC1): 232 ± 27 nM
- Fold difference in EC50 Tbntr++ relative to control [5]: 148 ± 9 (1.07)
- EC50 [5]: 148 nM
- T. cruzi SI [6]: 3
- EC50 [6]: 55 ± 2 nM
- EC50 [10]: 120 nM
- Fold difference in EC50 Tbcpr2++ relative to control [11]: 20 ± 3 (0.14 )
- Susceptibility of TbCPR2 or 3 over expressing lines relative to control cells [11]: hypersensitive; also recorded: sevenfold
- EC50 ([11]; Trypanosoma brucei, read-out: EC50 Tbcpr2++): 20 nM
